Results as given in paper PMC6337391 (Molecules, 2019).
Read-outs that look alike come from different tables or passages of the source.

Key:
[1] = Lipophilicity as RM values by RP-TLC; assay type: physicochemical; set-up: key: RM = log[(1/Rf) − 1]; conditions: methanol/water 70/30, SD < 10%
Method in brief: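 Reversed-phase TLC on silica gel plates impregnated with 5% (v/v) liquid paraffin, methanol/water 70/30 (v/v) mobile phase, saturated tanks at 24 °C, UV detection. RM = log[(1/Rf) − 1] from five Rf measurements.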

soybean lipoxygenase = biological target: T1, soybean lipoxygenase (Glycine max, UniProt P08170); assay: biochemical; assay type: biochemical
T1 sequence (P08170 1-839): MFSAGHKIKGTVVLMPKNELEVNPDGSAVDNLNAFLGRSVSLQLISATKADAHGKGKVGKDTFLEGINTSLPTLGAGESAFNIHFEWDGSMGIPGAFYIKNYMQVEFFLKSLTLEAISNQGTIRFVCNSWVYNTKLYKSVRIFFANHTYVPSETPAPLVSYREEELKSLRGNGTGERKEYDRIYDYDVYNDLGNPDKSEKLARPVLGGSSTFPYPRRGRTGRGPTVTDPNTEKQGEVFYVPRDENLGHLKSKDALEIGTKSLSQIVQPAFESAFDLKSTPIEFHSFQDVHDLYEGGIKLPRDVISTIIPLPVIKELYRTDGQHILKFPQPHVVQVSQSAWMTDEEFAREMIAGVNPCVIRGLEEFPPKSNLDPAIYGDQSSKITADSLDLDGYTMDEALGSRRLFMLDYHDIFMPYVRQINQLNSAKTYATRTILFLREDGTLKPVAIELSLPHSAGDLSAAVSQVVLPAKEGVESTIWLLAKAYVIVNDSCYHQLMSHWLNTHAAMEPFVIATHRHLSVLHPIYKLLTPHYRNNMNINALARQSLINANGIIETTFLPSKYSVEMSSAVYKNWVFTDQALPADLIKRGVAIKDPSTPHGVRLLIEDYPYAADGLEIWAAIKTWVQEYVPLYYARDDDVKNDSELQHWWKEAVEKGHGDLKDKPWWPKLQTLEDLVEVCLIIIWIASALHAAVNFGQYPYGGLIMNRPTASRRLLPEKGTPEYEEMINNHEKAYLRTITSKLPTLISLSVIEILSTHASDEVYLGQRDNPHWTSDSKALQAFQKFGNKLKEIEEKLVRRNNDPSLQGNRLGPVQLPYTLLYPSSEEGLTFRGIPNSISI
Method in brief: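 Soybean LOX (enzyme solution 1/9 × 10^−4 w/v in saline) incubated at room temperature with sodium linoleate ([…]) in tris buffer pH 9. Compounds added from DMSO stocks. IC50 derived from several concentrations.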

[2] = system: L929 mouse fibroblasts cells; assay: Cytotoxicity, propidium iodide fluorescence method; assay type: cell-based; conditions: 24-h incubation
Method in brief: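 L929 cells in EMEM with 10% horse serum were allowed to attach for 24 h, then exposed to 1, 10, 20, 50 and 100 μM compound for 24 h at 37 °C. Cells were detached, stained with propidium iodide, and cell death was measured by flow cytometry.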

[3] = Inhibition of linoleic acid lipid peroxidation (AAPH)
Method in brief: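 Sodium linoleate oxidation was initiated by AAPH in 0.05 M phosphate buffer, pH 7.4, at 37 °C, with test compound present and DMSO as blank. Conjugated diene hydroperoxide formation was followed as the absorbance increase at 234 nm.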

Compound	RM [1]	% LOX Inhb. @ 100 μM (soybean lipoxygenase; soybean LOX) [%]	1 μM Average (% pi) ± σ [2] [%]	10 μM Average (% pi) ± σ [2] [%]	20 μM Average (% pi) ± σ [2] [%]	50 μM Average (% pi) ± σ [2] [%]	100 μM Average (% pi) ± σ [2] [%]	AAPH% @ 100 μM (anti-lipid peroxidation) [3] [%]	IC50 (soybean lipoxygenase) [µM]	IC50 (soybean lipoxygenase; soybean LOX, read-out: LOX IC50) [µM]
CC(=O)c1ccc(OCCCCCCCOc2ccc(C(C)=O)cc2)cc1 [dvi, 1,1′-((heptane-1,7-diylbis(oxy))bis-(4,1-phenylene)) diethanone]	0.32	17	0.37 ± 0.52	1.92 ± 1.02	1.79 ± 1.53	2.55 ± 0.5	2.55 ± 0.5	12	–	–
O=C(/C=C/C=C/c1ccc([N+](=O)[O-])cc1)c1ccc(OCCCOc2ccc(C(=O)/C=C/C=C/c3ccc([N+](=O)[O-])cc3)cc2)cc1 [c11, (2E,2′E,4E,4′E)-1,1′-((propane-1,3-diylbis(oxy))bis(4,1-phenylene))bis(5-(4-nitrophenyl)penta-2,4-dien-1-one)]	−0.88	95	6.4 ± 0.4	19.07 ± 7.23	34.63 ± 0.31	64.53 ± 3.07	64.53 ± 3.07	68	50	–
O=C(/C=C/c1cccc2ccccc12)c1ccccc1O [b4, (E)-1-(2-hydroxyphenyl)-3-(naphthalen-1-yl) prop-2-en-1-one]	−0.03	82	–	–	–	–	–	82	–	65
CC(=O)c1ccc(OCCOc2ccc(C(C)=O)cc2)cc1 [di, 1,1′-((ethane-1,2-diylbis(oxy))bis(4,1-phenylene))diethanone]	0.67	12	4.94 ± 1.02	9.05 ± 0.58	16.78 ± 5.61	33.22 ± 9.65	33.22 ± 9.65	22	–	–
